Test results reported in patent publication US20110300073A1, “18F-LABELLED THREE-AND FOUR-CARBON ACIDS FOR PET IMAGING” (priority 2008, published 2011).

Tests used:
rats [1] = conditions: Dreisbach's Handbook of Poisoning; cited from earlier work
rats [2] = assay: toxicity in rats (oral LD50 / single dose); conditions: given at 212 mg/kg to rats
[3] = system: prostate cancer CWR22RV1 xenografts; assay: MicroPET imaging of nude mice with CWR22RV1 xenografts; format: in vivo
Procedure: Small animal PET imaging was performed on MicroPET, to evaluate the potential of 2-[^18F]-fluoropropanoic acid (2-[^18F]-FPA), and 2-[^18F]-fluorobutanoic acid (2-[^18F]-FBA) as tumor imaging agents in mice with prostate cancer CWR22RV1 xenografts. […] In addition to uptake in the tumor, there is high uptake in heart and brain.
The mice were imaged using MicroPET first with [^18F]-FDG after 4 hour fasting 1 hour post injection. The activity was allowed to decay for 20 hrs and the same mice were imaged with 2-[^18F]-FPA 1 hour post injection. In case of 2-[^18F]-FPA, the animals were not fasted. […] 2-[^18F]-FPA has high uptake in brain like [^18F]
(§1) All animal experiments were done in accordance with protocols approved by the Institutional Animal Care and Use Committee of Memorial Sloan-Kettering Cancer Center and followed National Institutes of Health guidelines for animal welfare. Subcutaneous tumors were produced in nude mice (20-25 g; Charles River Laboratories) by subcutaneous injection of 5×10^6 tumor cells in 200 μl consisting of 100 μl of cell culture medium and 100 μl of Matrigel under 2% Isofluorane anesthesia on the right forelimb of mice.
Imaging was performed by use of a dedicated small-animal PET scanner (Focus 120 microPET; Siemens Medical Solutions USA, Inc.). Mice were maintained under 2% isoflurane anesthesia in oxygen at 2 L/min during the entire scanning period. Imaging was performed one hour post administration of 11.1 MBq (300 μCi) of either 2-[^18F]-FPA or [^18F]-FDG via the lateral tail vein. An energy window of 350-700 keV and a coincidence timing window of 6 ns were used. The image data were corrected for non-uniformity of the scanner response, dead time count losses, and physical decay to the time of injection. No correction was applied for attenuation, scatter, or partial-volume averaging. The measured reconstructed spatial resolution of the Focus 120 scanner is ˜1.6 mm full width at half maximum at the center of the field of view.

CWR22RV1 xenografts = assay: single isotope [18F] biodistribution study in mice with CWR22rv1 tumors; format: in vivo; conditions: for tumor to organ ratio, blood / tumor to organ ratio, bone / tumor to organ ratio, heart / tumor to organ ratio, kidneys / tumor to organ ratio, large intestine / tumor to organ ratio, liver / tumor to organ ratio, lungs / tumor to organ ratio, muscle / tumor to organ ratio, small intestine / tumor to organ ratio, spine / tumor to organ ratio, spleen / tumor to organ ratio, stomach: tail vein, nude mice with CWR22RV1 xenografts
Procedure: as §1
For single isotope ([^18F]) biodistribution studies, mice with CWR22rv1 tumors were injected intravenously in the tail vein with 3.7-5.5 MBq (100-150 μCi) of [^18F]-FPA in 200 μL of saline. Radioactivity in the syringe before and after administration was measured in an energy-calibrated dose calibrator (CRC-15R; Capintec) and exact quantity received by each animal was determined. The animals were euthanized at different time points and then the organs were harvested. [^18F] radioactivity was measured in a calibrated gamma counter (Perkin Elmer 1480 Wizard 3 Auto Gamma counter, Waltham, Mass.) using 400-600 keV energy window and decay correction. The counts were converted into activity and % ID/g was calculated by dividing with decay corrected injected activity and weight of the organ. […] In addition to tumor, there is high uptake in blood and heart. The tumor to organ ratio of 2-[^18F]-FPA at 1, 2, 3 and 4 hour post injection is: […]

[4] = summary over 1-4 hour post injection

## O=C(O)CF [2-fluoroacetic acid]
Rats [1]
  oral LD50 in rats: 0.22 mg/kg

## CC(F)C(=O)O (centres unmarked) [2-fluoropropanoic acid]
Rats [2]
  toxicity in rats: no toxicity was observed

## OC[C@H]1OC(O)[C@H]([18F])[C@@H](O)[C@@H]1O (some centres unmarked) [[^18F]-FDG, [^18F]-fluorodeoxyglucose, reference compound]
[3]; 1 hour post injection
  uptake in brain (MicroPET): high uptake

## CC([18F])C(=O)O (centres unmarked) [2-[^18F]-FPA, 2-[^18F]-fluoropropanoic acid]
[3]; 1 hour post injection
  uptake in brain (MicroPET): high uptake
[3]; 1 hour post injection, FIG. 1
  accumulation in the kidneys of mice, unlike [18F]-FDG: much lower accumulation
[3]; 1 hour post injection, same mice, FIG. 1
  tumor visualization as compared to [18F]-FDG: much more clearly
[3]; one hour post administration
  uptake in heart (MicroPET): high uptake
[3]; one hour post administration, transaxial and coronal slices, 5 minute acquisition time
  tumor visualization in MicroPET image: easily visualized
CWR22RV1 xenografts; 1, 2, 3 and 4 hour post administration via tail vein
  biodistribution during the time of study: remains similar
CWR22RV1 xenografts; 1-4 hour post administration
  accumulation of tracer in tumor: considerable accumulation
  uptake in blood: high uptake
  uptake in heart (biodistribution): high uptake
CWR22RV1 xenografts; 1 hour post injection
  tumor to organ ratio, blood: 1.05
  tumor to organ ratio, bone: 2.79
  tumor to organ ratio, heart: 0.90
  tumor to organ ratio, kidneys: 1.43
  tumor to organ ratio, large intestine: 1.39
  tumor to organ ratio, liver: 1.35
  tumor to organ ratio, lungs: 1.22
  tumor to organ ratio, muscle: 1.79
  tumor to organ ratio, small intestine: 1.26
  tumor to organ ratio, spine: 1.76
  tumor to organ ratio, spleen: 1.40
  tumor to organ ratio, stomach: 2.50
CWR22RV1 xenografts; 2 hours post injection
  tumor to organ ratio, blood: 1.03
  tumor to organ ratio, bone: 2.14
  tumor to organ ratio, heart: 0.94
  tumor to organ ratio, kidneys: 1.57
  tumor to organ ratio, large intestine: 1.49
  tumor to organ ratio, liver: 1.24
  tumor to organ ratio, lungs: 1.17
  tumor to organ ratio, muscle: 1.79
  tumor to organ ratio, small intestine: 1.57
  tumor to organ ratio, spine: 1.61
  tumor to organ ratio, spleen: 1.56
  tumor to organ ratio, stomach: 3.60
CWR22RV1 xenografts; 3 hours post injection
  tumor to organ ratio, blood: 1.04
  tumor to organ ratio, bone: 2.58
  tumor to organ ratio, heart: 1.07
  tumor to organ ratio, kidneys: 1.60
  tumor to organ ratio, large intestine: 1.51
  tumor to organ ratio, liver: 1.33
  tumor to organ ratio, lungs: 1.30
  tumor to organ ratio, muscle: 1.76
  tumor to organ ratio, small intestine: 1.58
  tumor to organ ratio, spine: 1.57
  tumor to organ ratio, spleen: 1.62
  tumor to organ ratio, stomach: 4.48
CWR22RV1 xenografts; 4 hours post injection
  tumor to organ ratio, blood: 1.06
  tumor to organ ratio, bone: 1.90
  tumor to organ ratio, heart: 1.00
  tumor to organ ratio, kidneys: 1.29
  tumor to organ ratio, large intestine: 1.87
  tumor to organ ratio, liver: 1.41
  tumor to organ ratio, lungs: 1.32
  tumor to organ ratio, muscle: 1.85
  tumor to organ ratio, small intestine: 1.44
  tumor to organ ratio, spine: 1.44
  tumor to organ ratio, spleen: 1.56
  tumor to organ ratio, stomach: 3.54
CWR22RV1 xenografts; [4]
  tumor to organ ratio, heart (overall): around 0.95
  tumor to organ ratio, most of the organs except heart: greater than 1
